From ChEMBL document CHEMBL1131038, “Derivatives of the triazoloquinazoline adenosine antagonist (CGS 15943) having high potency at the human A2B and A3 receptor subtypes” (J Med Chem, 1998) come the findings set out here.

Broadly, the Ki is a dissociation constant, usually derived from enzyme kinetics or from competition with a known ligand. Low readings indicate tighter binding, high ones weaker binding. Broadly, the inhibition is the relative decrease from the control value, in per cent. Higher therefore signals a strong effect.

The target of one experiment is Adenosine receptor A2a (Rattus norvegicus, UniProt P30543). Kind of experiment: Binding affinity was determined in radioligand binding assay at rat striatal Adenosine A2A receptor vs [3H]-CGS- 21680.
Adenosine receptor A2a, sequence (P30543 whole entry): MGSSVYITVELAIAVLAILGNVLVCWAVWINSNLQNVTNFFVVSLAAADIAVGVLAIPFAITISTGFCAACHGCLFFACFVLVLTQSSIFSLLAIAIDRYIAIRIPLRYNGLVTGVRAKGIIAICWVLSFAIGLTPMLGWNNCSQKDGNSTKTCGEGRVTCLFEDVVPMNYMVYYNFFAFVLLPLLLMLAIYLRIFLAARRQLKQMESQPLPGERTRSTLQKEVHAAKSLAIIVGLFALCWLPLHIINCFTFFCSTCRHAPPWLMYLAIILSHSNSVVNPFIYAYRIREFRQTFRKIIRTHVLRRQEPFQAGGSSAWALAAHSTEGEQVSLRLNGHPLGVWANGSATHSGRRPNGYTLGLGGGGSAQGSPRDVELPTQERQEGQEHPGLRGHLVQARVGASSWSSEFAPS
The target of a further experiment is T1, Adenosine receptor A1 (Rattus norvegicus, UniProt P25099).
T1 sequence (P25099 whole entry): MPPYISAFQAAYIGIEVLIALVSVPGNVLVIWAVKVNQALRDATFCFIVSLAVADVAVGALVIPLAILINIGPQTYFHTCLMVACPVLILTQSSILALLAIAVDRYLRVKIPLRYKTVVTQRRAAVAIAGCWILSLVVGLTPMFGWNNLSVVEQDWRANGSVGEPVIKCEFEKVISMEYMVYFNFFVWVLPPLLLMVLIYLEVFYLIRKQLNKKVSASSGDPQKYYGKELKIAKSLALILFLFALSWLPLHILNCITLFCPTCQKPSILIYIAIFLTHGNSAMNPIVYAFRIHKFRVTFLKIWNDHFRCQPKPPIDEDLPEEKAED

The nature of experiment [1]: Ratio against rat A1 receptor and Human A3 receptor.
The next experiment deals with T2, Adenosine receptor A3 (Homo sapiens, UniProt P0DMS8).
T2 sequence (P0DMS8 whole entry): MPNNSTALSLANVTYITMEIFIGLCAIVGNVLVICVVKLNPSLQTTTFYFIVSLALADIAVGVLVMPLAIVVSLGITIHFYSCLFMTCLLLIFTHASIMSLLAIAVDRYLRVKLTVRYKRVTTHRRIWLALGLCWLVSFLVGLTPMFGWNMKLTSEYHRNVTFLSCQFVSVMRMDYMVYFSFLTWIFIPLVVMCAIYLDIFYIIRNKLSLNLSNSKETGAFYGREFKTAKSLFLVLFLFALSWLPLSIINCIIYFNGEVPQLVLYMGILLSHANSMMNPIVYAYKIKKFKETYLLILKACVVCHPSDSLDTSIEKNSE
Kind of experiment: biochemical.

Experiment [2] in a line: Ratio against rat A2A receptor and Human A3 receptor.
Experiment [3] concerns the target T3, Adenosine receptor A2b (Homo sapiens) (UniProt P29275).
T3 sequence (whole entry): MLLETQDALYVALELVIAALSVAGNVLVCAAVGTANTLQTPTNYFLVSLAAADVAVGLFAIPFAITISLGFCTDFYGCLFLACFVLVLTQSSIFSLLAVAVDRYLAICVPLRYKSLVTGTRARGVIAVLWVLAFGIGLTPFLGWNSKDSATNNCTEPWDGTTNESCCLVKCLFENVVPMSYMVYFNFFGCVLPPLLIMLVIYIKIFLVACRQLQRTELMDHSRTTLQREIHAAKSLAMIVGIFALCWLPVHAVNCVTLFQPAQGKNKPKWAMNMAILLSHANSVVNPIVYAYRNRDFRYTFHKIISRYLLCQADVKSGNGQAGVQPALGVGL
Kind of experiment: Inhibition at 50 uM on cAMP production induced by 50 uM 5`-(N-ethylcarboxamido)adenosine in CHO cell line transfected with human Adenosine A2B receptor cDNA. It counts as cell-based. For orientation: cAMP levels reflect the balance of adenylyl cyclase and phosphodiesterase activity.

Description for Adenosine receptor A1: Binding affinity was determined in radioligand binding assay at rat brain adenosine A1 receptor vs [3H]R-PIA
Description for Adenosine receptor A3: Binding affinity at cloned human adenosine A3 receptor expressed in HEK293 cells was determined using [125I]AB-MECA as radioligand

Regarding `COC(=O)CCCCCCC(=O)Nc1nc2ccc(Cl)cc2c2nc(-c3ccco3)nn12`, the inhibitory constant (Ki) amounted to 7.43 nM at Adenosine receptor A2a, 46.6 nM on Adenosine receptor A1 and 59 nM at Adenosine receptor A3. The values for the Selectivity ratio in experiment [1] and in experiment [2] were 0.79 and 0.13, respectively.
The compound `CCC(=O)Nc1nc2ccc(Cl)cc2c2nc(-c3ccco3)nn12` displayed an inhibition in experiment [3] of 66%.
In experiment [3], `O=C(Cc1cccc(Cl)c1)Nc1nc2ccc(Cl)cc2c2nc(-c3ccco3)nn12` gave an inhibition of 45%. For the same compound, the Ki at Adenosine receptor A2a is 9.43 nM; at Adenosine receptor A1, 43 nM; on Adenosine receptor A3, 32.1 nM. The results for the Selectivity ratio in experiment [1] and in experiment [2] were 1.3 and 0.29, respectively.
As to `O=C(Nc1nc2ccc(Cl)cc2c2nc(-c3ccco3)nn12)c1cccc(I)c1`, the inhibition in experiment [3] is 38%.
In experiment [3], `O=C(CCc1ccccc1)Nc1nc2ccc(Cl)cc2c2nc(-c3ccco3)nn12` had an inhibition of 43%. For the same compound, the inhibition constant Ki on Adenosine receptor A3 stood at 23.6 nM.
Take `C[C@@H](N)C(=O)Nc1nc2ccc(Cl)cc2c2nc(-c3ccco3)nn12`: the Ki at Adenosine receptor A2a amounted to 29.7 nM; at Adenosine receptor A1, 193 nM; at Adenosine receptor A3, 1140 nM. The Selectivity ratio worked out at 0.17 in experiment [1] and 0.026 in experiment [2].
The corresponding values for `CC(C)(C)OC(=O)NCCCCCCC(=O)Nc1nc2ccc(Cl)cc2c2nc(-c3ccco3)nn12` are 11.1 nM, 38.2 nM, 53.7 nM, 0.71 and 0.21.
With `O=C(Nc1nc2ccc(Cl)cc2c2nc(-c3ccco3)nn12)C(c1ccccc1)c1ccccc1`, the Ki at Adenosine receptor A2a worked out at 12.1 nM; on Adenosine receptor A1 it was 129 nM; at Adenosine receptor A3, 0.586 nM. Moreover, the Selectivity ratio in experiment [1] was found to be 220; in experiment [2], 21.
For the compound `CCCCC(=O)Nc1nc2ccc(Cl)cc2c2nc(-c3ccco3)nn12`, in experiment [3], the inhibition came to 79%.
As to `COc1ccc(CC(=O)Nc2nc3ccc(Cl)cc3c3nc(-c4ccco4)nn23)cc1`, the Ki on Adenosine receptor A2a is 28 nM; on Adenosine receptor A1, 30.2 nM; at Adenosine receptor A3 it was 14.4 nM. For the same compound, the Selectivity ratio in experiment [1] was determined as 2.1; in experiment [2], 1.9.
For `COC(=O)CCC(=O)Nc1nc2ccc(Cl)cc2c2nc(-c3ccco3)nn12`, in that order: 28.8 nM, 71.8 nM, 55.1 nM, 1.3 and 0.52.
The corresponding values for `C[C@H](C(=O)Nc1nc2ccc(Cl)cc2c2nc(-c3ccco3)nn12)c1ccccc1` are 11.1 nM, 46.2 nM, 0.362 nM, 130 and 31.
For `CC(NC(=O)OC(C)(C)C)C(=O)Nc1nc2ccc(Cl)cc2c2nc(-c3ccco3)nn12` (stereo not given), in that order: 6.65 nM, 54.7 nM, 82.9 nM, 0.66 and 0.08.
Take `C[C@@H](C(=O)Nc1nc2ccc(Cl)cc2c2nc(-c3ccco3)nn12)c1ccccc1`: the Ki at Adenosine receptor A2a came to 20.1 nM; on Adenosine receptor A1 it was 37.5 nM; on Adenosine receptor A3, 0.468 nM.
In the case of `Clc1ccc2nc(NCc3ccccc3)n3nc(-c4ccco4)nc3c2c1`, the inhibition in experiment [3] amounted to 21%. For the same compound, the Ki was determined as 200 nM on Adenosine receptor A2a and 42.5 nM on Adenosine receptor A3. Also, the Selectivity ratio in experiment [1] is 28; in experiment [2], 4.7.
Turning to `CCO/C(O)=C1\C(C)=NC(c2ccccc2)=C(C(=O)OCc2ccc([N+](=O)[O-])cc2)C1C#Cc1ccccc1` (stereo not given), the inhibitory constant (Ki) at Adenosine receptor A2a and on Adenosine receptor A1 was more than 100 nM each time.
In turn, `Nc1nc2ccc(Cl)cc2c2nc(-c3ccco3)nn12` [CGS-15943] returned an inhibition in experiment [3] of 100%. In addition, on Adenosine receptor A2a, the affinity corresponds to a Ki of 3.3 nM.
On to `CC(C(=O)Nc1nc2ccc(Cl)cc2c2nc(-c3ccco3)nn12)(c1ccccc1)c1ccccc1`, for which the figures for the inhibition constant Ki at Adenosine receptor A2a, at Adenosine receptor A1 and on Adenosine receptor A3 were 453 nM, 890 nM and 194 nM, respectively. The Selectivity ratio stood at 4.6 in experiment [1] and 2.3 in experiment [2].
`O=C(Nc1nc2ccc(Cl)cc2c2nc(-c3ccco3)nn12)c1ccccc1` came in with an inhibition in experiment [3] of 58%.
On the same count and under the same terms, with `O=C(Nc1nc2ccc(Cl)cc2c2nc(-c3ccc(Br)o3)nn12)c1ccccc1` the figure was 0%.
Turning to `CC(C)(C)OC(=O)NCCCCC(=O)Nc1nc2ccc(Cl)cc2c2nc(-c3ccco3)nn12`, the Ki at Adenosine receptor A2a was 3.64 nM; on Adenosine receptor A1, 30.1 nM; on Adenosine receptor A3, 22 nM. The Selectivity ratio was 1.4 in experiment [1] and 0.17 in experiment [2].
Regarding `Nc1nc2ccc(Cl)cc2c2nc(-c3ccc(Br)o3)nn12`, the inhibition in experiment [3] came out at 16%.
On the same count and under the same terms, to `Oc1nc2ccc(Cl)cc2c2nc(-c3ccco3)nn12` belongs 0%.
The same measure, in the same setting: to `CCCn1c(=O)n2nc(-c3ccco3)nc2c2cc(Cl)ccc21` belongs 0%.
In experiment [3], `NCCCCCCC(=O)Nc1nc2ccc(Cl)cc2c2nc(-c3ccco3)nn12` came in with an inhibition of 75%. Also, the Ki on Adenosine receptor A2a worked out at 55.9 nM; at Adenosine receptor A1, 114 nM; on Adenosine receptor A3 it was 346 nM. In addition, the figures for the Selectivity ratio in experiment [1] and in experiment [2] were 0.33 and 0.16, respectively.
In turn, `CCO/C(O)=C1\C(C)=NC(c2ccccc2)=C(C(=O)OCc2ccccc2)C1C#Cc1ccccc1` (stereo not given) gave a Ki on Adenosine receptor A2a of more than 100 nM.
`CC(C)(C)OC(=O)NCCC(=O)Nc1nc2ccc(Cl)cc2c2nc(-c3ccco3)nn12`: the results for the Ki at Adenosine receptor A2a, on Adenosine receptor A1 and on Adenosine receptor A3 were 7.58 nM, 31 nM and 6.71 nM, respectively. For the same compound, the Selectivity ratio in experiment [1] came to 4.6; in experiment [2], 1.1.
Consider `O=C(Cc1cccc(I)c1)Nc1nc2ccc(Cl)cc2c2nc(-c3ccco3)nn12`, for which the inhibitory constant (Ki) at Adenosine receptor A2a was 9.67 nM; at Adenosine receptor A1, 45.4 nM; at Adenosine receptor A3, 882 nM. For the same compound, the Selectivity ratio came to 0.051 in experiment [1] and 0.011 in experiment [2].
The corresponding values for `C[C@@H](NC(=O)OC(C)(C)C)C(=O)Nc1nc2ccc(Cl)cc2c2nc(-c3ccco3)nn12` are 18.8 nM, 48.6 nM, 46.3 nM, 1 and 0.41.
In experiment [3], `Nc1ccc(CC(=O)Nc2nc3ccc(Cl)cc3c3nc(-c4ccco4)nn23)cc1I` had an inhibition of 23%. The Ki came out at 10.4 nM at Adenosine receptor A2a, 217 nM at Adenosine receptor A1 and 49.3 nM on Adenosine receptor A3. In addition, the Selectivity ratio in experiment [1] stood at 4.4; in experiment [2] it was 0.21.
In the case of `CC(C)(C)OC(=O)NCCCC(=O)Nc1nc2ccc(Cl)cc2c2nc(-c3ccco3)nn12`, the inhibition in experiment [3] is 47%. For the same compound, the values for the Ki at Adenosine receptor A2a and at Adenosine receptor A1 were 19.9 nM and 45.9 nM, respectively. Besides, the figures for the Selectivity ratio in experiment [1] and in experiment [2] were 1.4 and 0.6, respectively.
Take `O=C(CCCCC(=O)OCc1ccccc1)Nc1nc2ccc(Cl)cc2c2nc(-c3ccco3)nn12`: the values for the inhibitory constant (Ki) on Adenosine receptor A2a, on Adenosine receptor A1 and on Adenosine receptor A3 were 16.7 nM, 304 nM and 44.7 nM, respectively. The Selectivity ratio was found to be 6.8 in experiment [1] and 0.37 in experiment [2].
With `C[C@H](N)C(=O)Nc1nc2ccc(Cl)cc2c2nc(-c3ccco3)nn12`, the Ki on Adenosine receptor A2a was 143 nM; at Adenosine receptor A1, 390 nM; at Adenosine receptor A3 it was 1200 nM. In addition, the Selectivity ratio amounted to 0.33 in experiment [1] and 0.12 in experiment [2].
The corresponding values for `O=C(Cc1ccccc1I)Nc1nc2ccc(Cl)cc2c2nc(-c3ccco3)nn12` are 17.2 nM, 2300 nM, more than 10000 nM, less than 1 and less than 1.
For `O=C(Cc1ccccc1)Nc1nc2ccc(Cl)cc2c2nc(-c3ccco3)nn12`, the inhibition in experiment [3] came to 71%. For the same compound, the Ki on Adenosine receptor A2a worked out at 10.3 nM; on Adenosine receptor A1, 52.7 nM.
Regarding `CC(C)(C)OC(=O)NCCCCCC(=O)Nc1nc2ccc(Cl)cc2c2nc(-c3ccco3)nn12`, the values for the Ki at Adenosine receptor A2a, on Adenosine receptor A1 and on Adenosine receptor A3 were 33.7 nM, 53.8 nM and 33.8 nM, respectively. Besides, the Selectivity ratio in experiment [1] worked out at 1.6; in experiment [2] it was 1.
In experiment [3], `CCCC(=O)Nc1nc2ccc(Cl)cc2c2nc(-c3ccco3)nn12` displayed an inhibition of 66%.
